Experimental data reported in publication PMC3127118, “Characterization of a Deswapped Triple Mutant Bovine Odorant Binding Protein” (2011).

Biological target: T1, GCC-bOBP (monomeric triple mutant of bovine odorant binding protein) (Bos taurus, UniProt P07435, W64C/INS121G/H155C)
T1 construct: GCC-bOBP, deswapped monomeric triple mutant
T1 sequence (P07435 with tags, fused parts or gaps W64C/INS121G/H155C): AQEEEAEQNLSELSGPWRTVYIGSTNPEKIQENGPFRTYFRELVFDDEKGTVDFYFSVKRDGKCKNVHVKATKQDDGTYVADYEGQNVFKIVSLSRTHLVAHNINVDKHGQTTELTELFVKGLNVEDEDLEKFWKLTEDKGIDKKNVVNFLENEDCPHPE
Assay: fluorescence titration (direct AMA fluorescence, excitation […] nm; FRET from Trp, excitation […] nm, gave Kd […]), pH […] °C

Nc1cccc2cc3ccccc3cc12 [AMA, 1-aminoanthracene]
Kd: 5 ± 0.2 µM
